According to ChEMBL document CHEMBL1201862, “PubChem BioAssay data set” (2004):
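Results reflect a 48-hour exposure of cells in 96-well plates to compound at five concentrations. GI50 is the concentration that inhibits growth by half.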 Activity calls are given as the source filed them. Cut-off read from the data, not from the text of the source: active = GI50 up to about 1.1 µM and inactive = higher.

Assays:
Assay in all cases: NCI tumour cell line growth inhibition, 48 h
Hs-578T = system: Hs-578T
T47D = system: T47D
BT-549 = system: BT-549
DU-145 = system: DU-145
MDA-N = system: MDA-N
MDA-MB-231 = system: MDA-MB-231
MCF7 = system: MCF7
RXF 631 = system: RXF 631

Measured: GI50

Cc1ccc(Cl)cc1/N=N/C(=O)NNc1cc(Cl)ccc1C
inactive: Hs-578T 23.8 µM | T47D 33.3 µM | BT-549 18.2 µM | DU-145 21.4 µM | MDA-N 31.8 µM | MDA-MB-231 16.8 µM | MCF7 27.8 µM

CC1(C)CCc2cc3c(-c4ccccc4)cc(=O)oc3cc2O1
inactive: RXF 631 > 100 µM

CCC1=NC(C(F)(F)F)(C(F)(F)F)N=C(N2CCOCC2)O1
inactive: Hs-578T > 100 µM | T47D > 100 µM | DU-145 > 100 µM | MDA-N > 100 µM | MDA-MB-231 > 100 µM | MCF7 > 100 µM

C=C(C)C1CC2=C(O1)C(=O)c1ccccc1C2=O (stereo not drawn) [DEHYDROISO-ALPHA-LAPACHONE]
inactive: RXF 631 20.3 µM
